# Measured values from article PMC11288129, “Diversely evolved xibalbin variants from remipede venom inhibit potassium channels and activate PKA-II and Erk1/2 signaling” (BMC Biology, 2024).
# Positions of bridges follow the written chain, without caps; N, C: chain ends. No end group written: not given here.
# Tested on: rat DRG sensory neurons
# Assay: Number of DRG neurons (cytotoxicity, high content imaging)
# Format: cell-based
# Details: also RAW264.7 and HMEC
# Method: We initially determined the cytotoxic effects of xibalbins on primary sensory neurons from adult male rats cultured in vitro [2]. […] We exposed overnight cultures of dissociated rat dorsal root ganglions (DRGs) to xibalbins for 5 and 30 min. Subsequently, all cells were fixed and immunocytochemically stained for the neuronal marker UCHL1 to identify neurons. The entire culture was digitally scanned using high content imaging (HCI) microscopy, and cell numbers, UCHL1 staining per cell, and cell size was analyzed. No loss of neurons was induced by either of the tested xibalbins, even at the highest concentration of 0.8 µg/µL (Additional File 3: Figure S2). […] We further investigated the potential toxicity of xibalbins in monocyte/macrophage-like cells (RAW264.7) and human microvascular endothelial cells (HMEC); see Additional File 5: Figure S4 The viability of RAW264.7 cells was detected using a formazan-based assay, while the proliferation of HMECs was assessed by measuring the number of crystal violet-stained cells.
# Male Sprague Dawley rats (250–400 g, 8–16 weeks old) were obtained from Envigo. […]
# Stained cells were scanned with a CX7-LZR (Thermo Fisher Scientific) HCI system. Images were acquired with a 10 × objective and analyzed using the cellomics software package (Thermo Fisher Scientific). […] The resulting objects were quantified for average object intensity in all other color channels. […]
row,Sequence,cytolytic or cytotoxic activity
1,"KRSCIRRFGRCDHRPNDCCYNSSCRCNLWGSNCRCQRMGLFQKWGK (disulfide 4-19, 11-24, 18-35, 26-33) [xib13]",do not show overt cytolytic or cytotoxic activity
2,"RLFCIRHHKYCGHRPKRCCSGLFCRCNTFGTNCRCQSKGALGKLI (disulfide 4-19, 11-24, 18-35, 26-33) [xib1]",do not show overt cytolytic or cytotoxic activity
